# Tests used:
# [1] = tested on: transcellular synthesis of prostacyclin; test: Transcellular prostacyclin synthesis: human PRP layered on acetylsalicylic acid-pretreated cultured bovine endothelial cells (6-keto-prostaglandin F1α by radioimmunoassay); format: cell-based
# Description: The effects on the transcellular synthesis of prostacyclin from endoperoxides generated in platelets were assessed by layering platelet rich plasma (PRP), obtained from healthy human subjects as described above, on cultured bovine endothelial cells (5×10^5 cells/well). The endothelial cells were pretreated with acetylsalicylic acid (10^−4 M) in order to inhibit the direct synthesis of endoperoxides, and washed twice with Dulbecco's phosphate buffered saline. Then to individual samples of endothelial cells there were added at 37° C. while shaking on an oscillating platform, 0.5 ml of PRP samples pretreated with the test compounds in various concentrations, ranging from […] to 10^−3 M. Collagen (0.5 μg/ml) was then added to each sample. After 2 minutes of contact at 37° C., PRP was removed and centrifuged at 12,000×g, and the supernatant was frozen and kept at −20° C. for the determination of 6-keto-prostaglandin F1α by radioimmunoassay.
# 6-Keto-prostaglandin F1α is a stable metabolite into which prostacyclin is rapidly converted.
# rabbit aortae = test: Vascular relaxation of contracted aortic rings in vitro; details: at a concentration of 10^−4 M; contraction induced with norepinephrine (10^−6 M)
# Description: The ability to induce vascular relaxation by acting as a donor of nitric oxide was tested in vitro on rabbit aortae. Rings of aortae were suspended in a Krebs-Henseleit solution at 37° C., submitted to a 1 g tension and connected to a force transducer.
# thromboxane synthesis = test: Thromboxane synthesis in clotting blood (serum TxB2 by radioimmunoassay); format: cell-based; details: human blood clotted 60 min at 37° C.
# Description: Test compounds were added in a series of concentrations ranging from 10^−7 M to 10^−3 M to samples of blood from healthy human subjects, who had not taken cyclooxygenase inhibitors (acetylsalicylic acid, non-steroidal anti-inflammatory agents) for at least two weeks. The blood samples were allowed to clot for 60 min in a bath at 37° C., and then centrifuged at 2500×g for 10 min. The serum was separated and kept frozen at −20° C. for the determination of TxB2 by radio immunoassay. TxB2 is the stable metabolite into which thromboxane A2 is rapidly converted.
# [2] = tested on: platelet aggregation in platelet-rich plasma (PRP); test: Platelet aggregation in human platelet-rich plasma (aggregometer, light transmittance); format: cell-based; details: for ability to counteract platelet aggregation by arachidonic acid: aggregation induced by arachidonic acid, human PRP
# Description: Platelet aggregation experiments were performed on platelet-rich plasma (PRP) prepared from blood of healthy human subjects, who had not taken cyclooxygenase inhibitors (acetylsalicylic acid, non-steroidal anti-inflammatory agents) for at least two weeks. Blood was collected in test tubes containing a 3.2% sodium citrate solution ( 1/10 of blood volume) and immediately centrifuged at 150×g for 15 minutes. Samples of PRP were further centrifuged at 12,000×g in order to obtain platelet-poor plasma (PPP), used for calibration of light transmittance of the double-channel aggregometer, fixing the transmittance of PRP as 10% and that of PPP as 90%. Platelet aggregation in PRP of each subject was tested measuring the percent increase in transmittance under the addition of increasing amounts of sodium arachidonate, in concentrations in the range from 300 to 900 μM, or of collagen, in concentrations in the range from 0.5 to 2.5 μg/ml, or of U-46619, in concentrations in the range from 0.2 to 1.6 μM. (U-46619, i.e., 9,11-dideoxy-11α, 9α-epoxymethano-prostaglandin F2α is an active synthetic analogue of thromboxane A2 and it is chemically stable, at difference from the natural compound; it is therefore used as a substitute in pharmacological experiments). In this way the threshold concentration, i.e., the concentration inducing a submaximal irreversible aggregation was assessed in each subject with the three agents.
# PRP samples of subjects not responding to the maximal concentrations were discarded.
compound,measurement,setting,value
"COc1ccc(C(=O)N[C@H]2CC[C@H](O[N+](=O)[O-])CC2)cc1C(=O)NCc1cccnc1 [4-Methoxy-N^1-(4-trans-nitrooxycyclohexyl)-N^3-(3-pyridinylmethyl)-1,3-benzenedicarboxamide]",level of prostacyclin metabolite relative to the amount produced in basal conditions by endothelial cells not submitted to cyclooxygenase inhibition,"[1]; acetylsalicylic acid-treated endothelial cells, collagen 0.5 μg/ml",8-16 times
same,"production of the prostacyclin metabolite (6-keto-prostaglandin F1α), level reached","[1]; acetylsalicylic acid-treated endothelial cells, collagen 0.5 μg/ml, 2 minutes at 37° C.",800-1600 μpg/ml
same,concentration from which production of the prostacyclin metabolite was markedly increased,"[1]; collagen 0.5 μg/ml, 2 minutes at 37° C., 6-keto-prostaglandin F1α",≥ 10^−6 M
same,relaxation of the aortic ring,rabbit aortae,complete relaxation
CC(=O)Oc1ccccc1C(=O)O [acetylsalicylic acid],effect on thromboxane synthesis,thromboxane synthesis,at difference from acetylsalicylic acid and ozagrel
same,ability to counteract platelet aggregation by arachidonic acid,[2],shared
"O=C(O)Cc1ccc(CCNS(=O)(=O)c2ccc(Cl)cc2)cc1 [daltroban, p-[2-(p-chlorobenzenesulfonamido)ethyl]phenylacetic]",ability to counteract the aggregation by U-46619,"[2]; aggregation induced by U-46619, human PRP",shared only by daltroban
same,ability to counteract platelet aggregation by arachidonic acid,[2],shared
same,stimulation of the synthesis of prostacyclin,[1]; PRP on acetylsalicylic acid-treated bovine endothelial cells,did not stimulate the synthesis of prostacyclin
"O=C(O)/C=C/c1ccc(Cn2ccnc2)cc1 [ozagrel, (E)-3-[4-(1H-imidazol-1-ylmethyl)-phenyl]-2-propenoic acid]",effect on thromboxane synthesis,thromboxane synthesis,at difference from acetylsalicylic acid and ozagrel
same,ability to counteract platelet aggregation by arachidonic acid,[2],shared
